The values below come from ChEMBL document CHEMBL3507680, “University of Dundee, Gates Library screen for HepG2 cell viability”.

This data set is described as follows: Human HepG2 cell viability assay in 384 well format. In kind it is toxicity, cell-based. Set-up: dose 125 nL, time 70.5 hour; cytotoxicity at 70.5 h: concentration not given beside the values. The note with it: HepG2 cells, read-out: Inhibition.
Regarding `COc1ccc(Cl)cc1C(=O)NCc1cnn(C)c1C`, the cytotoxicity at 70.5 h was -0.564%. `CN1CCC(N(C)C[C@H]2CC[C@@H](Cc3cccc(CO)c3)O2)CC1`: the cytotoxicity at 70.5 h was determined as 5.66%. The figure for `CC(=O)N1CCc2c(nc(N(C)C)nc2N(C)CCC2CCCCO2)C1` (stereo not drawn) is 11.3%. As for `CCc1cc(N(C)Cc2ccncn2)n2nc(C)c(C)c2n1`, the cytotoxicity at 70.5 h was -5.09%. The figure for `Cc1nn(C)c(C)c1NC(=O)c1cccc(CN2C[C@H]3CC[C@@H](C2)N3)c1` is -13.8%; for `CCCc1nnc(NC2CCN(C3CCSCC3)CC2)o1` it is -13.9%; for `CS(=O)(=O)N1C[C@@H]2CC[C@H](C1)N(C/C=C/c1ccc(F)cc1)C2` it is -4.45%. Next, `COC(=O)c1ccc(OC)c(OC23CCCN(CC2)C3)c1` (stereo not drawn): -8.44%; `NC(=O)c1cncc(Oc2cccc(CN3CCCC3)c2Cl)n1`: -4.84%. With `CCN(Cc1cnn(C)c1)C[C@H]1CC[C@@H](Cc2cccc(CN)c2)O1`, the cytotoxicity at 70.5 h came out at 3.32%.

Turning to `Fc1cccc(Cl)c1Cn1ncnc1CSCCN1CCCC1`, the cytotoxicity at 70.5 h was -6.36%. As for `O=C(NC1CCC1)c1cccc(S(=O)(=O)NCc2nc(C3CC3)no2)c1`, the cytotoxicity at 70.5 h came to 6.45%. Next, `COc1cc(C(=O)N2CC[C@@H](NC(=O)c3ccccn3)[C@H](O)C2)ccn1`: -9.28%; `CCN(CC)C1CCN(C(=O)c2cc(CC(C)C)nn2CC)C1` (stereo not drawn): 3.49%; `CCN1CC2(CCN(Cc3nc(CSC)no3)CC2)CC1=O`: 23.5%. The figure for `Cc1cc2cccc(C(=O)N3CC[C@@H](N)[C@H](O)C3)c2o1` is -9.95%; for `Cc1cc(C(F)(F)F)nc(N2CCN(Cc3nccn3C)CC2)n1` it is 4.75%.

Regarding `Cn1cc(CN2CCC(CCC(=O)NC3CC3)CC2)cn1`, the cytotoxicity at 70.5 h was determined as 0.934%.

As for `CCn1ccnc1CN(C)C1CCCN(Cc2ccccc2F)C1` (stereo not drawn), the cytotoxicity at 70.5 h was -1.31%. In the case of `CC1CN(Cc2nc(Cc3ccccc3F)no2)CCN1C` (stereo not drawn), the cytotoxicity at 70.5 h was -2.74%. As to `C[C@@H]1CN(Cc2ccc(C(F)(F)F)cc2F)CC[C@]1(C)O`, the cytotoxicity at 70.5 h was 26.4%. Next, `Cc1sc2nc(CCN)nc(N(C)CCCC3CCCO3)c2c1C` (stereo not drawn): 16.5%. Next, `CN(CC1(CO)CCC1)c1nc2c(c(=O)[nH]1)Cc1ccccc1OC2`: -10.8%. Next, `CC(C)N(C(=O)c1ccccc1-c1nc2c([nH]1)CCNC2)C(C)C`: 5.55%.

As for `Cn1ncc(NC(=O)Cn2cc(-c3ccc(F)cn3)cn2)n1`, the cytotoxicity at 70.5 h is -10.2%. The figure for `CNc1cc(C)nc(N2Cc3cnn(Cc4ccc(F)cc4)c3C2)n1` is 11.4%; for `Cc1nnsc1CN(C)Cc1ccc(C(=O)Nc2sccc2C#N)cc1` it is -3.25%; for `O=C(O)[C@]12CCCN(Cc3cccnc3)[C@@H]1CCN(c1cnccn1)C2` it is 2.83%. Take `O=C1C[C@H]2CC[C@@H](CN1)N2C1CCSCC1`: the cytotoxicity at 70.5 h is 0.716%. `CSc1cccc(CC(=O)N[C@@H]2CCNC[C@H]2O)c1`: the cytotoxicity at 70.5 h came to 10.3%. Next, `COCc1nnc(C(=O)N2CCC(N3CCCCC3)CC2)o1`: 16.4%; `Cc1ccc(CN(CCN(C)C)C(=O)Nc2ccc(C)c(C#N)c2)s1`: 1.83%; `COc1cccnc1-c1ccc(F)c2c1OC(CN)C2` (stereo not drawn): 3.56%. Next, `Cc1ccc(CN2C[C@H]3CC[C@@H]2CN(Cc2[nH]cnc2C)C3)o1`: -0.228%; `Cc1ccc(-c2nnc(CN3CCOCC(CO)C3)o2)n1C` (stereo not drawn): -3.57%; `CN(CCO)C[C@@H]1CN(Cc2ccccc2-c2ccccc2)C[C@@H]1CO`: -2.36%. With `C1CCC(c2nc3c(c(N4CC(N5CCOCC5)C4)n2)CCNCC3)C1`, the cytotoxicity at 70.5 h was -8.17%.

In the case of `CCOCCN1CCC=C(C2c3nc[nH]c3CCN2C(C)=O)C1` (stereo not drawn), the cytotoxicity at 70.5 h turned out to be 0.27%. Turning to `Cc1ccc(C)c(OCCNC(=O)[C@@H]2CCCCN2)c1`, the cytotoxicity at 70.5 h was -5.85%.

As to `O=C(CCc1cc2n(n1)CCCNC2)NCCS(=O)(=O)N1CCCC1`, the cytotoxicity at 70.5 h amounted to 21.6%.

`Cc1cc2occ(CC(=O)N3CCC4(CCCN(C)C4=O)C3)c2cc1Cl` (stereo not drawn): the cytotoxicity at 70.5 h is -8.33%.

Take `CCC(=O)c1ccc(OCC(=O)NC(C)c2ncnn2CC)cc1` (stereo not drawn): the cytotoxicity at 70.5 h is -17.2%. Next, `NC(=O)c1noc(Cn2ccc3ccccc3c2=O)n1`: -4.6%; `NC(=O)NCCC(=O)N1CCC(c2cc(-c3ccccc3Cl)n[nH]2)CC1`: -1.52%; `CCSc1ncc(CN2C[C@H]3CC[C@@H]2CN(C2CCOCC2)C3)cn1`: -7.51%. Next, `Cc1cc(C(=O)N2CCn3nc(C(=O)NC4CC4)cc3C2)nc(C)n1`: -2.56%. The figure for `O=C(CCC1CCN(C2CCSCC2)CC1)NCC1CCCO1` (stereo not drawn) is -12%; for `O=C(O)CSc1nnc(-c2ccn[nH]2)n1-c1cccc(C(F)(F)F)c1` it is -4.2%.

Consider `CCNC(=O)[C@@H]1C[C@@H](N)CN1C(=O)CCc1ccc(C)c(C)c1`, for which the cytotoxicity at 70.5 h is -10.5%.

On to `Cc1ccc(-c2nc3c([nH]2)CCNC3C(=O)O)c2cccnc12` (stereo not drawn), for which the cytotoxicity at 70.5 h is -6.16%. Next, `COc1ccc(C(=O)N2CCC(Oc3ccccc3C)(C(=O)O)CC2)o1`: -3.87%. Regarding `Cc1nc(CN(Cc2cccnc2)Cc2ccsc2)c[nH]1`, the cytotoxicity at 70.5 h stood at 0.327%. Next, `CC(C)N1CC(C(=O)N2CCC(Oc3ccccc3Cl)CC2)CC1=O` (stereo not drawn): -0.961%; `CCCc1nc(N[C@H]2COC[C@@H]2N2CCCCC2)c2cnn(C)c2n1`: -13.5%; `C1CC(CN2C[C@H]3CC[C@@H]2CN(Cc2noc(C4CCCC4)n2)C3)C1`: 22.2%. In the case of `CS(=O)(=O)N1CCC(c2nnc(CN3CCCC3)n2C2CC2)CC1`, the cytotoxicity at 70.5 h was 0.642%. `COc1cc(C)cc(C(C(=O)O)N(C)Cc2ccncc2C)c1OC` (stereo not drawn): the cytotoxicity at 70.5 h is 4.18%.

For the molecule `Cc1ccc(-c2cc(C(=O)N(C)Cc3noc4c3CCCC4)[nH]n2)o1`, the cytotoxicity at 70.5 h is 43.8%. The figure for `N[C@@H]1c2ccccc2C2(CCN(C(=O)c3ccc(Cl)cn3)CC2)[C@H]1O` is 18.5%; for `COCCN(Cc1nccs1)C(=O)c1c(C)cc(C)[nH]c1=O` it is 12.2%; for `Cc1nc(NCc2noc(C3CCCO3)n2)c2ccsc2n1` (stereo not drawn) it is 26.9%.

For the molecule `O=C1CNCC(C(=O)N2CC(Oc3ccccc3Cl)C2)N1` (stereo not drawn), the cytotoxicity at 70.5 h was -7.25%. The figure for `Cc1n[nH]c(C)c1CCC(=O)N1CCc2c(nc[nH]c2=O)C1` is -22.4%; for `CN1CCC(C)(CN(C)Cc2ccc(CCC(C)(C)O)cc2)C1` (stereo not drawn) it is -6.89%. In the case of `COCCCN1CC2(CCCN(c3ncc(Cl)cc3F)C2)CCC1=O` (stereo not drawn), the cytotoxicity at 70.5 h was found to be 3.03%. The figure for `O=C(CCCN1CCOCC1)N1CCCC(CO)(CC2CC2)C1` (stereo not drawn) is -9.81%. Take `O=C(c1cc2ccccc2s1)N1CCC(C(=O)O)(n2cccn2)CC1`: the cytotoxicity at 70.5 h was -4.38%.

Regarding `CCOC(=O)C1(Cc2cccc(OC)c2)CCN(Cc2ncc[nH]2)CC1`, the cytotoxicity at 70.5 h was -8.46%.
